Values quoted from earlier work as cited in patent US20070258969A1, “Compositions and methods for targeting metastatic tumors using multivalent ligand-linked carbohydrate polymers” (priority 2004, published 2007).

Experiments:
[1] = system: B16 melanoma cells; settings: in vivo
[2] = system: L-1 sarcoma cells; settings: in vivo

Row | Compound | metastasis of B16 melanoma cells [1] | liver metastasis of L-1 sarcoma cells [2]
1 | CO[C@H]1O[C@H](CO)[C@@H](O[C@@H]2O[C@H](CO)[C@H](O)[C@H](O)[C@H]2O)[C@H](O)[C@H]1O [methyl-α-D-lactoside] | inhibit metastasis | 
2 | CC(=O)N[C@H]1[C@H](O[C@H]2[C@@H](O)[C@@H](CO)O[C@@H](O[C@H]3[C@H](O)[C@@H](O)C(O)O[C@@H]3CO)[C@@H]2O)O[C@H](CO)[C@@H](O)[C@@H]1O[C@@H]1O[C@H](CO)[C@H](O)[C@H](O)[C@H]1O (stereo partly shown) [lacto-N-tetrose] | inhibit metastasis | 
3 | arabinogalactose |  | inhibited liver metastasis
4 | O=C[C@H](O)[C@@H](O)[C@@H](O)[C@H](O)CO [D-galactose] |  | inhibited liver metastasis
